Measurements reported in PubChem BioAssay (NCI).
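Step 1: Grow cells in 96-well plates. Step 2: Expose to compound for 48 hours at 5 concentrations. Step 3: Interpolate endpoints linearly; if unreached, use highest concentration. Definition used: TGI = concentration required for complete inhibition of growth.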

Key:
Assay in all cases: DTP human tumour cell line panel, 48 h
786-0 renal = tested on: 786-0 renal
A498 renal = tested on: A498 renal
A549 NSCLC = tested on: A549 NSCLC
ACHN renal = tested on: ACHN renal
BT-549 breast = tested on: BT-549 breast
CAKI-1 renal = tested on: CAKI-1 renal
CCRF-CEM leukemia = tested on: CCRF-CEM leukemia
DU-145 prostate = tested on: DU-145 prostate
EKVX NSCLC = tested on: EKVX NSCLC
HCC-2998 colon = tested on: HCC-2998 colon
HCT-116 colon = tested on: HCT-116 colon
HCT-15 colon = tested on: HCT-15 colon
HL-60(TB) leukemia = tested on: HL-60(TB) leukemia
HOP-62 NSCLC = tested on: HOP-62 NSCLC
HOP-92 NSCLC = tested on: HOP-92 NSCLC
HS 578T breast = tested on: HS 578T breast
HT29 colon = tested on: HT29 colon
IGROV1 ovarian = tested on: IGROV1 ovarian
K-562 leukemia = tested on: K-562 leukemia
KM12 colon = tested on: KM12 colon
LOX IMVI melanoma = tested on: LOX IMVI melanoma
M14 melanoma = tested on: M14 melanoma
MALME-3M melanoma = tested on: MALME-3M melanoma
MCF7 breast = tested on: MCF7 breast
MDA-MB-231 breast = tested on: MDA-MB-231 breast
MDA-N = tested on: MDA-N
MOLT-4 leukemia = tested on: MOLT-4 leukemia
NCI-H226 lung = tested on: NCI-H226 lung
NCI-H23 lung = tested on: NCI-H23 lung
NCI-H460 lung = tested on: NCI-H460 lung
NCI-H522 lung = tested on: NCI-H522 lung
OVCAR-3 ovarian = tested on: OVCAR-3 ovarian
OVCAR-4 ovarian = tested on: OVCAR-4 ovarian
OVCAR-5 ovarian = tested on: OVCAR-5 ovarian
OVCAR-8 ovarian = tested on: OVCAR-8 ovarian
PC-3 prostate = tested on: PC-3 prostate
RPMI-8226 leukemia = tested on: RPMI-8226 leukemia
RXF 393 renal = tested on: RXF 393 renal
SF-268 CNS = tested on: SF-268 CNS
SF-295 CNS = tested on: SF-295 CNS
SF-539 CNS = tested on: SF-539 CNS
SK-MEL-28 melanoma = tested on: SK-MEL-28 melanoma
SK-MEL-5 melanoma = tested on: SK-MEL-5 melanoma
SN12C renal = tested on: SN12C renal
SNB-19 CNS = tested on: SNB-19 CNS
SNB-75 CNS = tested on: SNB-75 CNS
SR leukemia = tested on: SR leukemia
SW-620 colon = tested on: SW-620 colon
T-47D breast = tested on: T-47D breast
TK-10 renal = tested on: TK-10 renal
U251 CNS = tested on: U251 CNS
UACC-257 melanoma = tested on: UACC-257 melanoma
UO-31 renal = tested on: UO-31 renal
COLO 205 colon = tested on: COLO 205 colon
MDA-MB-435 = tested on: MDA-MB-435
NCI/ADR-RES ovarian = tested on: NCI/ADR-RES ovarian
SK-MEL-2 melanoma = tested on: SK-MEL-2 melanoma
SK-OV-3 ovarian = tested on: SK-OV-3 ovarian
UACC-62 melanoma = tested on: UACC-62 melanoma

COc1ccc2c(O)c(Oc3ccc(Cl)cc3)c(=O)oc2c1
TGI (786-0 renal): > 100 µM
TGI (A498 renal): > 100 µM
TGI (A549 NSCLC): > 100 µM
TGI (ACHN renal): > 100 µM
TGI (BT-549 breast): > 100 µM
TGI (CAKI-1 renal): > 100 µM
TGI (CCRF-CEM leukemia): > 100 µM
TGI (DU-145 prostate): > 100 µM
TGI (EKVX NSCLC): > 100 µM
TGI (HCC-2998 colon): > 100 µM
TGI (HCT-116 colon): > 100 µM
TGI (HCT-15 colon): > 100 µM
TGI (HL-60(TB) leukemia): > 100 µM
TGI (HOP-62 NSCLC): > 100 µM
TGI (HOP-92 NSCLC): > 100 µM
TGI (HS 578T breast): > 100 µM
TGI (HT29 colon): > 100 µM
TGI (IGROV1 ovarian): > 100 µM
TGI (K-562 leukemia): > 100 µM
TGI (KM12 colon): > 100 µM
TGI (LOX IMVI melanoma): > 100 µM
TGI (M14 melanoma): > 100 µM
TGI (MALME-3M melanoma): > 100 µM
TGI (MCF7 breast): > 100 µM
TGI (MDA-MB-231 breast): > 100 µM
TGI (MDA-N): > 100 µM
TGI (MOLT-4 leukemia): > 100 µM
TGI (NCI-H226 lung): > 100 µM
TGI (NCI-H23 lung): > 100 µM
TGI (NCI-H460 lung): > 100 µM
TGI (NCI-H522 lung): > 100 µM
TGI (OVCAR-3 ovarian): > 100 µM
TGI (OVCAR-4 ovarian): > 100 µM
TGI (OVCAR-5 ovarian): > 100 µM
TGI (OVCAR-8 ovarian): > 100 µM
TGI (PC-3 prostate): > 100 µM
TGI (RPMI-8226 leukemia): > 100 µM
TGI (RXF 393 renal): > 100 µM
TGI (SF-268 CNS): > 100 µM
TGI (SF-295 CNS): > 100 µM
TGI (SF-539 CNS): > 100 µM
TGI (SK-MEL-28 melanoma): > 100 µM
TGI (SK-MEL-5 melanoma): > 100 µM
TGI (SN12C renal): > 100 µM
TGI (SNB-19 CNS): > 100 µM
TGI (SNB-75 CNS): > 100 µM
TGI (SR leukemia): > 100 µM
TGI (SW-620 colon): > 100 µM
TGI (T-47D breast): > 100 µM
TGI (TK-10 renal): > 100 µM
TGI (U251 CNS): > 100 µM
TGI (UACC-257 melanoma): > 100 µM
TGI (UO-31 renal): > 100 µM

N#CC(C#N)=c1c(=O)c2c3ccccc3cc3cccc1c32
TGI (786-0 renal): > 100 µM
TGI (A498 renal): > 100 µM
TGI (A549 NSCLC): > 100 µM
TGI (ACHN renal): > 100 µM
TGI (BT-549 breast): > 100 µM
TGI (CAKI-1 renal): > 100 µM
TGI (CCRF-CEM leukemia): > 100 µM
TGI (COLO 205 colon): > 100 µM
TGI (DU-145 prostate): > 100 µM
TGI (HCC-2998 colon): > 100 µM
TGI (HCT-116 colon): > 100 µM
TGI (HCT-15 colon): > 100 µM
TGI (HL-60(TB) leukemia): > 100 µM
TGI (HOP-62 NSCLC): > 100 µM
TGI (HOP-92 NSCLC): > 100 µM
TGI (HS 578T breast): 85 µM
TGI (HT29 colon): > 100 µM
TGI (IGROV1 ovarian): > 100 µM
TGI (KM12 colon): > 100 µM
TGI (LOX IMVI melanoma): > 100 µM
TGI (M14 melanoma): > 100 µM
TGI (MDA-MB-231 breast): > 100 µM
TGI (MDA-MB-435): > 100 µM
TGI (MDA-N): > 100 µM
TGI (MOLT-4 leukemia): > 100 µM
TGI (NCI-H226 lung): > 100 µM
TGI (NCI-H23 lung): > 100 µM
TGI (NCI-H460 lung): > 100 µM
TGI (NCI/ADR-RES ovarian): > 100 µM
TGI (OVCAR-3 ovarian): > 100 µM
TGI (OVCAR-4 ovarian): > 100 µM
TGI (OVCAR-5 ovarian): > 100 µM
TGI (PC-3 prostate): > 100 µM
TGI (RPMI-8226 leukemia): > 100 µM
TGI (SF-268 CNS): > 100 µM
TGI (SK-MEL-2 melanoma): > 100 µM
TGI (SK-MEL-28 melanoma): > 100 µM
TGI (SK-MEL-5 melanoma): > 100 µM
TGI (SK-OV-3 ovarian): > 100 µM
TGI (SN12C renal): > 100 µM
TGI (SNB-19 CNS): > 100 µM
TGI (SNB-75 CNS): > 100 µM
TGI (SW-620 colon): > 100 µM
TGI (T-47D breast): > 100 µM
TGI (U251 CNS): > 100 µM
TGI (UACC-257 melanoma): > 100 µM
TGI (UACC-62 melanoma): > 100 µM
